Experimental data as given in PubChem BioAssay AID179 (DTP/NCI, 2004).
pEC50, pIC50: −log10 of the molar value. Values joined by “and” are separate entries in the source; they are usually repeats but may differ in a detail not shown here. Equal values may be shown once. Active and inactive are the calls of the source.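 Rule for the calls: active = compounds giving half or more protection of infected cells from virus-caused growth loss, again on retest; inactive = the rest.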 *1 amine or outer side, *2 acyl side, *3 side chain or, on linkers, in order; H or OH if unused. Where a SMILES comes first, the peptide text is derived from it. [ ]: non-standard residue; d: D form. X21 = NC(=O)CCC(CN[*:1])C(=O)[*:2]

Test system: CEM cells HIV-1 protection, formazan growth assay
Assay: NCI AIDS Antiviral Assay
Conditions: for pIC50: measured here: growth of uninfected CEM cells
Method in brief: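 Category rules: moderately active means at least 50% protection on retest, and confirmed active means 100% protection reproducibly. The underlying data came from a formazan growth assay in HIV-1-infected CEM cells.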

| Compound | pEC50 | pIC50 | outcome |
| --- | --- | --- | --- |
| Cc1nc2ccc(N)cc2[nH]c1=O | < 3.13 | < 3.13 | – |
| c1ccc(Cn2c(-c3ccc(-c4ccccc4)cc3)cc3ccccc32)cc1 | < 4.00 | < 4.00 | – |
| O=c1[nH]nc(-c2ccccc2)n1-n1cccc1 | < 3.70 | 4.01 | – |
| Cc1cc(=N)cc(C)n1O | < 2.74 | < 2.74 | – |
| COc1cc(NC(C)=O)c(OC)cc1Cl | – | – | inactive |
| CC1(N)COP(=O)(NCc2ccccc2)OC1 (centres undefined) | < 3.17 | 3.23 | – |
| CC1(C)C(=O)N2CCSC21 (centres undefined) | < 4.78 | < 4.78 | – |
| CCN(CC)CCSSCCN(CC)CC | < 3.70 | 4.41 | – |
| Cc1ccc(N=Nc2c(C)c(C#N)c(=S)n(C3OC(CO)C(O)C(O)C3O)c2-c2ccccc2)cc1 (centres undefined) | < 3.70 | 4.73 | – |
| Nc1ccc2c(SCC(=O)Nc3ccccc3-c3ccccc3NC(=O)CSc3c4ccccc4nc4cc(N)ccc34)c3ccccc3nc2c1 | < 5.14 | < 5.14 | – |
| NC(=O)NCc1c(C(N)=O)ncn1Cc1ccccc1 | – | – | inactive |
| CCOc1ccccc1NC(=O)C(=O)CC(=O)C1=C(C)Nc2ccccc2S1 | < 3.93 | < 3.93 | – |
| Cc1cn(C(Cc2ccccc2)OCC[Se]c2ccccc2)c(=O)[nH]c1=O (centres undefined) | 4.00 | < 3.70 | – |
| CCOC(=O)c1c(-c2ccc(O)c(OC)c2)c(C#N)c(=S)n(C2OC(CO)C(O)C(O)C2O)c1-c1ccccc1 (centres undefined) | < 3.70 | < 3.70 and 3.93 | – |
| CCC(C)C(NC(=O)C(CCC(N)=O)NC(=O)C1CCCN1)C(=O)NC(C(=O)NC(CC(C)C)C(=O)NC(Cc1c[nH]c2ccccc12)C(=O)NCC(CCC(N)=O)C(=O)NC(CCCN=C(N)N)C(=O)N1CCCC1C(=O)NC(CC(C)C)C(=O)O)C(C)O (centres undefined) (H-PQITLW[X21]RPL-OH; configuration not given here) | – | – | inactive |
| O=[N+]([O-])c1ccc(S(=O)(=O)c2ccccc2)c([N+](=O)[O-])c1 | – | – | inactive |
| O=[N+]([O-])c1ccc2nncc(N3CC3)c2c1 | – | – | inactive |
| C[C@H]1CC[P+](C)(c2ccccc2)C1 (some centres undefined) | < 3.04 | < 3.04 | – |
| COC(=O)C1(Cc2ccc3c(c2)CCC3)Cc2ccc3c(c2C1O)CCC3 (centres undefined) | < 3.70 | 4.91 | – |
| COc1ccc2c(O)c(Cc3ccc(OC)c(OC)c3)c(=O)oc2c1 | – | – | inactive |
| N#Cc1c(Br)n(C2OC(CO)C(O)C2O)c2ncn3ccnc3c12 (centres undefined) | < 3.70 | < 3.70 | – |

| Compound | pEC50 | pIC50 | outcome |
| --- | --- | --- | --- |
| COC(=O)C1C(O)C(C)C(O)C(C)C=C(C)C2=C3C(=C(C)C(=O)c4c(O)c(c(C)c(OC(C)=O)c43)NC(=O)C(C)=C/C=C\C(C)C(O)C(C)C1O)OCO2 (centres undefined) | < 4.11 | – | – |
| C#Cc1c(C)c(/C=C/C(C)=C\C(=O)OC)n(C)c1C | < 4.55 | < 4.55 | – |
| COC(=O)C(C)(C)C(OP(=S)(N(C)C)N(C)C)=C(C)C | < 4.65 | < 4.65 | – |
| CCOP(=O)(Cc1cc(C(C)(C)C)c(O)c(C(C)(C)C)c1)OCC | < 4.00 | < 4.00 | – |
| NC(N)=NS(=O)(=O)c1ccc(NCc2c3ccccc3[n+]([O-])c3ccccc23)cc1 | – | – | inactive |
| CCCN(C)C(=O)COc1cc2c(O)c3c(O)c(C)c4c(c13)C(=O)C(C)(O/C=C/C(OC)C(C)C(OC(C)=O)C(C)C(O)C(C)C(O)C(C)/C=C/C=C(\C)C(=O)N2)O4 (centres undefined) | < 3.70 | 4.73 | – |
| COc1cc(C2c3cc4c(cc3C(NCC(O)CO)C3COC(=O)[C@H]23)OCO4)cc(OC)c1OC (some centres undefined) | – | – | inactive |
| O=C1NC(=O)C(C(=O)C(=O)Nc2cccc(C(F)(F)F)c2)C(=O)N1 | < 4.40 | < 4.40 | – |
| CSC12c3cc(C)n(-c4ccc([N+](=O)[O-])cc4)c3CC(C)(C)CN1C(=O)C2Oc1ccccc1 (centres undefined) | < 3.70 | 4.31 | – |
| CC1(CC2=C(C(=O)NCCO[Si](C)(C)C(C)(C)C)C3(OCCO3)C2=O)OCCO1 | < 3.70 | < 3.70 | – |
| CC(=O)OC1C(=O)C(O)C(C)OC1O[C@@H]1C[C@@]2(C)[C@@H]3CC=C4[C@@H](C[C@H](O)C(=O)C4(C)C)[C@]3(C)C(=O)C[C@]2(C)[C@H]1[C@@](C)(O)C(=O)/C=C/C(C)(C)O (some centres undefined) | < 6.30 | 7.08 | – |
| CCOC(=O)C=C1CCC2(CC1)OCCO2 | < 3.60 | < 3.60 | – |
| COc1cccc(C=C2C(=O)NC(=O)NC2=O)c1 | < 3.84 | < 3.84 | – |
| Cc1ccc(N=Nc2c(N)nn3cc4c(nc23)-c2ccccc2C4)cc1 | < 3.70 | 5.53 | – |
| COC(=O)C(CC(=O)Nc1ccc(C)cc1)C(=O)C(=O)Nc1ccccc1C(C)C (centres undefined) | < 3.64 | < 3.64 | – |
| O=c1[nH]c2ccccc2c2c1CCO2 | – | – | inactive |
| COc1ccc(C(=O)CC(=O)c2ccc3ccccc3n2)c(O)c1OC | < 3.70 | 4.89 | – |
| O=[N+]([O-])c1cccc(C2=NON(c3ncccn3)C3N=CC=CN23)c1 (centres undefined) | < 5.23 | < 5.23 | – |
| CCOc1ccc(NC(=O)CC2C(=O)Nc3ccccc3S2=O)cc1 (centres undefined) | < 5.12 | < 5.12 | – |
| CCOC(=O)c1cnc2c(ccc3[nH]n(C)nc32)c1=O | < 3.60 | < 3.60 | – |
| [N-]=[N+]=Nc1c(C=O)c(=O)n2c3c(cccc13)CCC2 | < 3.70 | 5.37 | – |
